Results taken from patent US20230183239A1, “ECTONUCLEOTIDE PYROPHOSPHATASE-PHOSPHODIESTERASE 1 (ENPP-1) INHIBITORS AND USES THEREOF” (AbbVie Inc., priority 2017, published 2023).

Assays:
Assay type in all cases: biochemical
ENPP1 [1] = molecular target: T1, ENPP1 (Homo sapiens, UniProt P22413); assay: ENPP1 enzyme assay with AMP-pNP substrate (hydrolysis of ATP analog); conditions: AMP-pNP substrate (ATP analog); Ki from IC50 by Cheng-Prusoff; read-out: ENPP1 Inhibition _AMP-pNP: Ki
T1 sequence (P22413 1-925): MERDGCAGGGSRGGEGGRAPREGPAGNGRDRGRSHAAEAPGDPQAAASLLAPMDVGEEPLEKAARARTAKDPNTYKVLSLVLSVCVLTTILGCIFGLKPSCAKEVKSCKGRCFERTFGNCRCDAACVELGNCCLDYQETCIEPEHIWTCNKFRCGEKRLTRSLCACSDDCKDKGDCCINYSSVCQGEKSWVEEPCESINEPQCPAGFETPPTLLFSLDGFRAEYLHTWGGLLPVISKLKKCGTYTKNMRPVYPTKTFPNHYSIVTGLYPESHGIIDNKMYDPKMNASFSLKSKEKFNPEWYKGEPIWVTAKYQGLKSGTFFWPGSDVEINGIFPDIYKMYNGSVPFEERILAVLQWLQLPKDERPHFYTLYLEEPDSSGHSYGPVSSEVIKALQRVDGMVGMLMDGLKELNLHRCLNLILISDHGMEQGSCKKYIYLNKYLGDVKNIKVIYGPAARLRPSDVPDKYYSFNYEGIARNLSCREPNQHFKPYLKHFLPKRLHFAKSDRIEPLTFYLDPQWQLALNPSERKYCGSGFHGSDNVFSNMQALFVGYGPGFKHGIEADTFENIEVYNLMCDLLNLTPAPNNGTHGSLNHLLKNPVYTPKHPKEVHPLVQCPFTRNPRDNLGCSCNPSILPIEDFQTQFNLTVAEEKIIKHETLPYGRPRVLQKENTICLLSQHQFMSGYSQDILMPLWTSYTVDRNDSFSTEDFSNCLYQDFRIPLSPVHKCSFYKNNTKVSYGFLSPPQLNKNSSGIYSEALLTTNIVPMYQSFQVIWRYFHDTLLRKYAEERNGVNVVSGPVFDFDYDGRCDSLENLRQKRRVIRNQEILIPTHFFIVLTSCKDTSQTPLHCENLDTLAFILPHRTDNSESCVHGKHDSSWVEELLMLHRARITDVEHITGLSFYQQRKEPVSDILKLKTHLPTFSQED
Method in brief: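 Human recombinant ENPP1 (60 ng/well) with 300 µM AMP-pNP in 50 mM Tris-HCl pH 8.5, 250 mM NaCl, 0.5 mM CaCl2, 1 µM ZnCl2, 0.1% DMSO, 20 min at 37 °C.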

ENPP1 [2] = molecular target: T1, ENPP1; assay: Indirect quantitation of 2',3'-cGAMP hydrolysis (AMP-Glo Assay kit); conditions: cGAMP substrate; Ki from IC50 by Cheng-Prusoff; read-out: ENPP1 Inhibition -cGAMP: Ki
ENPP1 [3] = molecular target: T1, ENPP1; assay: Substrate selectivity ratio, inhibition of cGAMP hydrolysis versus ATP hydrolysis; conditions: ratio Ki AMP-pNP / Ki cGAMP
Experimental: The selectivity ratios for inhibition of cGAMP hydrolysis versus ATP hydrolysis were then calculated as follows: […]

Row | Compound | Ki (ENPP1 [1]) | Ki (ENPP1 [2]) | Substrate Selectivity: Ki_AMP-pNP/Ki_cGAMP (ENPP1 [3])
1 | COc1cc2nccc(OCc3ccc(NS(N)(=O)=O)cc3)c2cc1OC [Example 191, N-(4-(((6,7-dimethoxyquinolin-4-yl)oxy)methyl)phenyl) sulfamide] | > 1000 nM | 100 to 1000 nM | > 25.0
2 | Cn1cnc2nccc(-c3ccc4c(c3)CN(S(N)(=O)=O)CC4)c21 [Example 193, 7-(1-methyl-1H-imidazo[4,5-b]pyridin-7-yl)-3,4-dihydroisoquinoline-2(1H)-sulfonamide] | > 1000 nM | < 100 nM | > 38.6
3 | COc1cc2ncnc(N3CCC(CCn4nnc(N)n4)CC3)c2cc1OC [Example 195, 2-(2-(1-(6,7-dimethoxyquinazolin-4-yl)piperidin-4-yl)ethyl)-2H-tetrazol-5-amine] | > 1000 nM | 100 to 1000 nM | > 45.7
4 | COc1cc2ncnc(NCc3ccc(C(=O)NO)cc3)c2cc1OC [Example 196, 4-(((6,7-dimethoxyquinazolin-4-yl)amino)methyl)-N-hydroxybenzamide] | > 1000 nM | < 100 nM | > 13.4
5 | COc1cc2nccc(Oc3c(F)cc(NS(N)(=O)=O)cc3F)c2cc1OC [Example 197, N-(4-((6,7-dimethoxyquinolin-4-yl)oxy)-3,5-difluorophenyl)sulfamide] | > 1000 nM | < 100 nM | >49.7
6 | COc1ccc2c(N3CCC(CCNS(N)(=O)=O)CC3)ncnc2c1 [Example 198, N-(2-(1-(7-methoxyquinazolin-4-yl)piperidin-4-yl)ethyl)sulfamide] | 100 to 1000 nM | < 100 nM | 39.2
7 | COc1ccc2ncnc(N3CCC(CCNS(N)(=O)=O)CC3)c2c1 [Example 199, N-(2-(1-(6-methoxyquinazolin-4-yl)piperidin-4-yl)ethyl)sulfamide] | 100 to 1000 nM | < 100 nM | 33.6
8 | COc1cc2ncnc(N3CCC(CCNS(=O)(=O)NC(C)=O)CC3)c2cc1OC [Example 200, N-(N-(2-(1-(6,7-dimethoxyquinazolin-4-yl)piperidin-4-yl)ethyl)sulfamoyl)acetamide] | > 1000 nM | 100 to 1000 nM | >64.2
9 | COc1cc2nccc(Oc3ccc(NS(N)(=O)=O)cc3F)c2cc1OC [Example 201, N-(4-((6,7-dimethoxyquinolin-4-yl)oxy)-3-fluorophenyl)sulfamide] | 100 to 1000 nM | < 100 nM | > 19.9
10 | COc1cc2nccc(N3CC4CN(S(N)(=O)=O)CC4C3)c2cc1OC (stereo not drawn) [Example 202, 5-(6,7-dimethoxyquinolin-4-yl)hexahydropyrrolo[3,4-c]pyrrole-2(1H)-sulfonamide] | 100 to 1000 nM | < 100 nM | 10.5
11 | COc1cc2nccc(N3CCC(CCNS(=O)(=O)NC(C)=O)CC3)c2cc1OC [Example 203, N-(N-(2-(1-(6,7-dimethoxyquinolin-4-yl)piperidin-4-yl)ethyl)sulfamoyl)acetamide] | > 1000 nM | 100 to 1000 nM | > 33.7
12 | COc1cc2nccc(N3CCC(CCNS(N)(=O)=O)CC3)c2cn1 [Example 204, N-(2-(1-(7-methoxy-1,6-naphthyridin-4-yl)piperidin-4-yl)ethyl)sulfamide] | > 1000 nM | 100 to 1000 nM | > 39.4
13 | COc1cc2ncnc(N3CCC(CCNS(N)(=O)=O)CC3)c2cc1OC(C)C [Example 205, N-(2-(1-(6-isopropoxy-7-methoxyquinazolin-4-yl)piperidin-4-yl)ethyl)sulfamide] | > 1000 nM | 100 to 1000 nM | > 14.4
14 | COc1cc2ncnc(N3CCC(CCNS(N)(=O)=O)CC3)c2cc1F [Example 206, N-(2-(1-(6-fluoro-7-methoxyquinazolin-4-yl)piperidin-4-yl)ethyl)sulfamide] | 100 to 1000 nM | < 100 nM | 39.6
15 | COc1cc2nccc(Nc3ccc(CC(=O)NO)cc3)c2cc1OC [Example 207, 2-(4-((6,7-dimethoxyquinolin-4-yl)amino)phenyl)-N-hydroxyacetamide] | < 100 nM | < 100 nM | 36.8
16 | COc1cc2ncnc(N3CCC(CCNS(=O)(=O)C(F)F)CC3)c2cc1OC [Example 208, N-(2-(1-(6,7-dimethoxyquinazolin-4-yl)piperidin-4-yl)ethyl)-1,1-difluoromethanesulfonamide] | > 1000 nM | < 100 nM | > 16.4
17 | COc1cc2nccc(N3CCC(CN(C4CC4)S(N)(=O)=O)CC3)c2cc1OC [Example 212, N-cyclopropyl-N-((1-(6,7-dimethoxyquinolin-4-yl)piperidin-4-yl)methyl)sulfamide] | > 1000 nM | < 100 nM | > 46.1
18 | COc1cc2nccc(OC3CCC(NS(N)(=O)=O)C3)c2cc1OC (stereo not drawn) [Example 213, N-(3-((6,7-dimethoxyquinolin-4-yl)oxy)cyclopentyl)sulfamide] | > 1000 nM | < 100 nM | 33.0
19 | COc1cc2nccc(N3CC4(C3)CN(S(N)(=O)=O)C4)c2cc1OC [Example 214, 6-(6,7-dimethoxyquinolin-4-yl)-2,6-diazaspiro[3.3]heptane-2-sulfonamide] | > 1000 nM | 100 to 1000 nM | > 15.3
20 | COc1cc2c(N3CCC(CCNS(N)(=O)=O)CC3)c(C#N)cnc2cn1 [Example 216, N-(2-(1-(3-cyano-6-methoxy-1,7-naphthyridin-4-yl)piperidin-4-yl)ethyl)sulfamide] | > 1000 nM | < 100 nM | > 72.3
21 | COc1cc2ncn(-c3ccc(CCNS(N)(=O)=O)cc3)c2cc1OC [Example 217, N-(4-(5,6-dimethoxy-1H-benzo[d]imidazol-1-yl)phenethyl)sulfamide] | > 1000 nM | 100 to 1000 nM | > 18.2
22 | COc1nc2ncnc(N3CCC(CCNS(N)(=O)=O)CC3)c2n1C [Example 218, N-(2-(1-(8-methoxy-7-methyl-7H-purin-6-yl)piperidin-4-yl)ethyl)sulfamide] | > 1000 nM | 100 to 1000 nM | >42.9
23 | COc1cc2ncnc(N3CCC(CCN(O)C=O)CC3)c2cc1OC [Example 219, N-(2-(1-(6,7-dimethoxyquinazolin-4-yl)piperidin-4-yl)ethyl)-N-hydroxyformamide] | 100 to 1000 nM | < 100 nM | 26.4
24 | COc1cc2nccc(N3CCC(CCNS(N)(=O)=O)CC3)c2cc1F [Example 220, N-(2-(1-(6-fluoro-7-methoxyquinolin-4-yl)piperidin-4-yl)ethyl)sulfamide] | 100 to 1000 nM | < 100 nM | 35.9
25 | COc1cc2ncnc(N3CCC(CCC(N)=O)CC3)c2cc1OC [Example 222, 3-(1-(6,7-dimethoxyquinazolin-4-yl)piperidin-4-yl)propanamide] | > 1000 nM | 100 to 1000 nM | > 14.6
26 | COc1ccc2c(Oc3cnc(NS(N)(=O)=O)nc3)ccnc2c1 [Example 224, N-(5-((7-methoxyquinolin-4-yl)oxy)pyrimidin-2-yl)sulfamide] | 100 to 1000 nM | 100 to 1000 nM | > 2.40
27 | COc1cc2nccc(-c3ccc(CNS(N)(=O)=O)cc3)c2cc1OC [Example 225, N-(4-(6,7-dimethoxyquinolin-4-yl)benzyl)sulfamide] | < 100 nM | < 100 nM | 48.4
28 | COc1ccc2c(-c3ccc(CNS(N)(=O)=O)cc3)ncnc2c1 [Example 226, N-(4-(7-methoxyquinazolin-4-yl)benzyl)sulfamide] | 100 to 1000 nM | < 100 nM | 29.5
